Target: His-tagged p53-Y220C DNA binding domain (Homo sapiens, UniProt P04637, Y220C)
Assay: Biochemical p53-Y220C and DNA binding assay (HTRF)
Conditions: inflection point of 10 points dose titration, 4 parameter curve fit; p53-Y220C DBD 100 nM, biotinylated dsDNA 200 nM, 27 to 29° C.; read-out: HTRF IP
Description: Biological Example 1. Biochemical p53-Y220C and DNA Binding Assay
The compounds of this invention can bind to p53-Y220C and increase the ability of the mutant p53 to bind to DNA at higher temperatures. His-tagged p53-Y220C DNA binding domain containing amino acid 94-312 is used to measure DNA binding activities in vitro with the sequence described below. (SEQ ID NO: 1: […]. Biotin labeled double strand DNA (dsDNA) containing consensus p53 binding sequence (SEQ ID NO: 2: Forward: 5′-(biotin)-[…]-3′; Reverse: 5′-(biotin)-[…]-3′) is used to measure protein-DNA binding activities. Compounds, His-tagged p53-Y220C DBD proteins (100 nM), and biotinylated dsDNA (200 nM) were mixed in ice-cold assay buffer containing DPBS, 20 mM NaCl, and 0.5% BAS, and incubated at 4° C. overnight in 384-well plate. Plates were transferred to incubator at 27 to 29° C. with constant shaking for 60 minutes. Equal volume of Homogeneous Time-Resolved Fluorescence (HTRF) dyes containing mAb anti-6HIS Tb cryptate gold and d2 labeled streptavidin in the assay buffer was added to each well and incubated at 27 to 29° C. with constant shaking for 60 minutes. The plate was read using Envision multimode plate reader. Reference compound 1 was used as high control and DMSO was used as low control. The percentage activation (A %) of protein-DNA binding by compounds was normalized by setting up high control (reference compound) as […] and low control (DMSO) as 0% (A %=(HTRF ratio of compound-HTRF ratio of low control)/(HTRF ratio of high control-HTRF ratio of low control)*500). 10 points dose titration curves for each compound were analyzed by 4 parameter curve fit and inflection point (IP) was reported. Reference compound 1 is shown below Table 1. Compounds of the invention are active in the HTRF assay. Data in Table 1 collected using Biological Example 1.

| Structure (SMILES) | EC50 [nM] |
| --- | --- |
| OC1(CO/N=C/c2sc3c(N[C@@H]4CNC[C@@H]4F)cccc3c2CC(F)(F)F)CCCC1 [Example 1-14, (E)-7-(((3R,4S)-4-fluoropyrrolidin-3-yl)amino)-3-(2,2,2-trifluoroethyl)benzo[b]thiophene-2-carbaldehyde O-((1-hydroxycyclopentyl)methyl) oxime] | 100 to 1000 |
| OC1(CO/N=C/c2sc3c(N[C@@H]4CNC[C@@H]4F)cccc3c2CC(F)(F)F)CCCOC1 (stereo partly drawn) [Example 1-15, (E)-7-(((3R,4S)-4-fluoropyrrolidin-3-yl)amino)-3-(2,2,2-trifluoroethyl)benzo[b]thiophene-2-carbaldehyde O-((3-hydroxytetrahydro-2H-pyran-3-yl)methyl) oxime] | 100 to 1000 |
| OCC1(O/N=C/c2sc3c(N[C@@H]4CNC[C@@H]4F)cccc3c2CC(F)(F)F)CCCOC1 (stereo partly drawn) [Example 1-16, (E)-7-(((3R,4S)-4-fluoropyrrolidin-3-yl)amino)-3-(2,2,2-trifluoroethyl)benzo[b]thiophene-2-carbaldehyde O-(3-(hydroxymethyl)tetrahydro-2H-pyran-3-yl) oxime] | > 1000 |
| OC1CCCC1O/N=C/c1sc2c(N[C@@H]3CNC[C@@H]3F)cccc2c1CC(F)(F)F (stereo partly drawn) [Example 1-17, (E)-7-(((3R,4S)-4-fluoropyrrolidin-3-yl)amino)-3-(2,2,2-trifluoroethyl)benzo[b]thiophene-2-carbaldehyde O-(2-hydroxycyclopentyl) oxime] | 100 to 1000 |
| OC1(CO/N=C/c2sc3c(N[C@@H]4CNC[C@@H]4F)cccc3c2CC(F)(F)F)CCC1 [Example 1-18, (E)-7-(((3R,4S)-4-fluoropyrrolidin-3-yl)amino)-3-(2,2,2-trifluoroethyl)benzo[b]thiophene-2-carbaldehyde O-((1-hydroxycyclobutyl)methyl) oxime] | 100 to 1000 |
| OCC1(O/N=C/c2sc3c(N[C@@H]4CNC[C@@H]4F)cccc3c2CC(F)(F)F)CCC1 [Example 1-19, (E)-7-(((3R,4S)-4-fluoropyrrolidin-3-yl)amino)-3-(2,2,2-trifluoroethyl)benzo[b]thiophene-2-carbaldehyde O-(1-(hydroxymethyl)cyclobutyl) oxime] | 100 to 1000 |
| CC(O)(CO/N=C\c1sc2c(N[C@@H]3CNC[C@@H]3F)cccc2c1CC(F)(F)F)c1ccccc1 (stereo partly drawn) [Example 1-22, (Z)-7-(((3R,4S)-4-fluoropyrrolidin-3-yl)amino)-3-(2,2,2-trifluoroethyl)benzo[b]thiophene-2-carbaldehyde O-(2-hydroxy-2-phenylpropyl) oxime] | 100 to 1000 |
| CC(CO)(O/N=C/c1sc2c(N[C@@H]3CNC[C@@H]3F)cccc2c1CC(F)(F)F)c1ccccc1 (stereo partly drawn) [Example 1-23, (E)-7-(((3R,4S)-4-fluoropyrrolidin-3-yl)amino)-3-(2,2,2-trifluoroethyl)benzo[b]thiophene-2-carbaldehyde O-(1-hydroxy-2-phenylpropan-2-yl) oxime] | > 1000 |
| O=C(OCc1ccccc1)N1CCC(O)(CO/N=C/c2sc3c(N[C@@H]4CNC[C@@H]4F)cccc3c2CC(F)(F)F)CC1 [Example 1-25, benzyl 4-(((((E)-(7-(((3R,4S)-4-fluoropyrrolidin-3-yl)amino)-3-(2,2,2-trifluoroethyl)benzo[b]thiophen-2-yl)methylene)amino)oxy)methyl)-4-hydroxypiperidine-1-carboxylate] | > 1000 |
| OCC(Cn1cccn1)O/N=C/c1sc2c(N[C@@H]3CNC[C@@H]3F)cccc2c1CC(F)(F)F (stereo partly drawn) [Example 1-28, (E)-7-(((3R,4S)-4-fluoropyrrolidin-3-yl)amino)-3-(2,2,2-trifluoroethyl)benzo[b]thiophene-2-carbaldehyde O-(1-hydroxy-3-(1H-pyrazol-1-yl)propan-2-yl) oxime] | > 1000 |
| OCC1(O/N=C/c2sc3c(N[C@@H]4CNC[C@@H]4F)cccc3c2CC(F)(F)F)CCCCC1 [Example 1-30, (E)-7-(((3R,4S)-4-fluoropyrrolidin-3-yl)amino)-3-(2,2,2-trifluoroethyl)benzo[b]thiophene-2-carbaldehyde O-(1-(hydroxymethyl)cyclohexyl) oxime] | > 1000 |
| OC1(CO/N=C\c2sc3c(N[C@@H]4CNC[C@@H]4F)cccc3c2CC(F)(F)F)CCCCC1 [Example 1-31, (Z)-7-(((3R,4S)-4-fluoropyrrolidin-3-yl)amino)-3-(2,2,2-trifluoroethyl)benzo[b]thiophene-2-carbaldehyde O-((1-hydroxycyclohexyl)methyl) oxime] | > 1000 |

Further lines, results first:

| EC50 [nM] | Structure (SMILES) |
| --- | --- |
| > 1000 | COCC(CO)O/N=C/c1sc2c(N[C@@H]3CNC[C@@H]3F)cccc2c1CC(F)(F)F (stereo partly drawn) [Example 1-11, (E)-7-(((3R,4S)-4-fluoropyrrolidin-3-yl)amino)-3-(2,2,2-trifluoroethyl)benzo[b]thiophene-2-carbaldehyde O-(1-hydroxy-3-methoxypropan-2-yl) oxime] |
| 100 to 1000 | OC1(CO/N=C/c2sc3c(N[C@@H]4CNC[C@@H]4F)cccc3c2CC(F)(F)F)CCNC1 (stereo partly drawn) [Example 1-12, (E)-7-(((3R,4S)-4-fluoropyrrolidin-3-yl)amino)-3-(2,2,2-trifluoroethyl)benzo[b]thiophene-2-carbaldehyde O-((3-hydroxypyrrolidin-3-yl)methyl) oxime] |
| > 1000 | OCC1(O/N=C/c2sc3c(N[C@@H]4CNC[C@@H]4F)cccc3c2CC(F)(F)F)CCNC1 (stereo partly drawn) [Example 1-13, (E)-7-(((3R,4S)-4-fluoropyrrolidin-3-yl)amino)-3-(2,2,2-trifluoroethyl)benzo[b]thiophene-2-carbaldehyde O-(3-(hydroxymethyl)pyrrolidin-3-yl) oxime] |
| 100 to 1000 | OC1(CO/N=C/c2sc3c(N[C@@H]4CNC[C@@H]4F)cccc3c2CC(F)(F)F)CCOCC1 [Example 1-20, (E)-7-(((3R,4S)-4-fluoropyrrolidin-3-yl)amino)-3-(2,2,2-trifluoroethyl)benzo[b]thiophene-2-carbaldehyde O-((4-hydroxytetrahydro-2H-pyran-4-yl)methyl) oxime] |
| > 1000 | OCC1(O/N=C/c2sc3c(N[C@@H]4CNC[C@@H]4F)cccc3c2CC(F)(F)F)CCOCC1 [Example 1-21, (E)-7-(((3R,4S)-4-fluoropyrrolidin-3-yl)amino)-3-(2,2,2-trifluoroethyl)benzo[b]thiophene-2-carbaldehyde O-(4-(hydroxymethyl)tetrahydro-2H-pyran-4-yl) oxime] |
| > 1000 | O=C(OCc1ccccc1)N1CCC(CO)(O/N=C/c2sc3c(N[C@@H]4CNC[C@@H]4F)cccc3c2CC(F)(F)F)CC1 [Example 1-26, benzyl 4-((((E)-(7-(((3R,4S)-4-fluoropyrrolidin-3-yl)amino)-3-(2,2,2-trifluoroethyl)benzo[b]thiophen-2-yl)methylene)amino)oxy)-4-(hydroxymethyl)piperidine-1-carboxylate] |
| 100 to 1000 | OC(CO/N=C/c1sc2c(N[C@@H]3CNC[C@@H]3F)cccc2c1CC(F)(F)F)Cn1cccn1 (stereo partly drawn) [Example 1-27, (E)-7-(((3R,4S)-4-fluoropyrrolidin-3-yl)amino)-3-(2,2,2-trifluoroethyl)benzo[b]thiophene-2-carbaldehyde O-(2-hydroxy-3-(1H-pyrazol-1-yl)propyl) oxime] |
| > 1000 | OC1(CO/N=C/c2sc3c(N[C@@H]4CNC[C@@H]4F)cccc3c2CC(F)(F)F)CCCCC1 [Example 1-29, (E)-7-(((3R,4S)-4-fluoropyrrolidin-3-yl)amino)-3-(2,2,2-trifluoroethyl)benzo[b]thiophene-2-carbaldehyde O-((1-hydroxycyclohexyl)methyl) oxime] |

Reference: patent US20250120961A1, “P53 MODULATORS” (Nested Therapeutics, Inc., priority 2023, published 2025)
